Columns and labels:
[1] = xn = mol fraction of the nth substance listed; details: 308.15 K, 101 kPa, Liquid
[2] = excess molar enthalpy (molar enthalpy of mixing); xn = mol fraction of the nth substance listed; details: 101 kPa, Liquid, Calvet calorimetry

CCCCOC(=O)CCC [butyl butanoate] + CCCCCCCCCCCC
[1]
Details	excess molar volume [m3/mol]
x1 = 0.086	2.25e-07
x1 = 0.1642	4.085e-07
x1 = 0.2326	4.99e-07
x1 = 0.3151	5.957e-07
x1 = 0.4238	6.386e-07
x1 = 0.4435	6.409e-07
x1 = 0.5057	6.525e-07
x1 = 0.5458	6.501e-07
x1 = 0.6564	5.883e-07
x1 = 0.6617	5.83e-07
x1 = 0.6962	5.604e-07
x1 = 0.7365	5.311e-07
x1 = 0.7625	4.759e-07
x1 = 0.7821	4.581e-07
x1 = 0.8186	4.073e-07
x1 = 0.8623	3.308e-07
x1 = 0.9593	1.15e-07

[2], 308 K
Details	excess molar enthalpy [kcal/mol]
x1 = 0.0894	0.0705
x1 = 0.1261	0.0937
x1 = 0.1734	0.123
x1 = 0.205	0.137
x1 = 0.2668	0.165
x1 = 0.3014	0.176
x1 = 0.326	0.183
x1 = 0.3509	0.188
x1 = 0.4179	0.203
x1 = 0.4544	0.208
x1 = 0.517	0.207
x1 = 0.5526	0.207
x1 = 0.6779	0.186
x1 = 0.7202	0.174
x1 = 0.8233	0.128
x1 = 0.8287	0.125
x1 = 0.9006	0.0808
x1 = 0.9307	0.0574

CCCCCCCCO [octan-1-ol] + CCCCCCCCCCCC
[2], 308.15 K
Details	excess molar enthalpy [kcal/mol]
x1 = 0.1345	0.172
x1 = 0.1898	0.187
x1 = 0.2658	0.198
x1 = 0.3122	0.2
x1 = 0.4077	0.199
x1 = 0.4433	0.196
x1 = 0.4591	0.194
x1 = 0.5302	0.186
x1 = 0.5667	0.179
x1 = 0.6587	0.158
x1 = 0.6595	0.16
x1 = 0.7509	0.126
x1 = 0.7661	0.12
x1 = 0.8263	0.0932
x1 = 0.8566	0.0782
x1 = 0.8983	0.0574
x1 = 0.9353	0.0366
x1 = 0.97	0.017
